Data reported in PubChem BioAssay AID2060600 (Molecular Pharmacology Branch, DTP, NCI, 2025).
Where “and” joins values, the source holds several entries; their conditions need not be identical. Equal values may be shown once.

System: 996289-038-R-J1-PDC complex spheroid viability
Assay: Anticancer human tumor 996289-038-R-J1-PDC patient-derived colon adenocarcinoma cell line growth inhibition [CLK]
Details: for viability, T/C: stronger effect = lower value
In short: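 Multi-cell-type spheroids combined patient-derived tumor cells with HUVEC endothelial cells and human mesenchymal stem cells. Paired agents were dosed in half-log steps down from about clinical Cmax, or from 10 microM where Cmax was unknown.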

[1] = curve of first compound, second compound 0.0316 µM
[2] = curve of first compound, second compound 0.1 µM
[3] = curve of first compound, second compound 0.316 µM
[4] = curve of first compound, second compound 1 µM
[5] = curve of first compound, second compound 3.16 µM
[6] = curve of first compound, second compound 10 µM
[7] = second compound 0.0316 µM, first compound 0.0316 µM
[8] = second compound 0.0316 µM, first compound 0.1 µM
[9] = second compound 0.0316 µM, first compound 0.316 µM
[10] = second compound 0.0316 µM, first compound 1 µM
[11] = second compound 0.0316 µM, first compound 3.16 µM
[12] = second compound 0.0316 µM, first compound 10 µM
[13] = second compound 0.1 µM, first compound 0.0316 µM
[14] = second compound 0.1 µM, first compound 0.1 µM
[15] = second compound 0.1 µM, first compound 0.316 µM
[16] = second compound 0.1 µM, first compound 1 µM
[17] = second compound 0.1 µM, first compound 3.16 µM
[18] = second compound 0.1 µM, first compound 10 µM
[19] = second compound 0.316 µM, first compound 0.0316 µM
[20] = second compound 0.316 µM, first compound 0.1 µM
[21] = second compound 0.316 µM, first compound 0.316 µM
[22] = second compound 0.316 µM, first compound 1 µM
[23] = second compound 0.316 µM, first compound 3.16 µM
[24] = second compound 0.316 µM, first compound 10 µM
[25] = second compound 1 µM, first compound 0.0316 µM
[26] = second compound 1 µM, first compound 0.1 µM
[27] = second compound 1 µM, first compound 0.316 µM
[28] = second compound 1 µM, first compound 1 µM
[29] = second compound 1 µM, first compound 3.16 µM
[30] = second compound 1 µM, first compound 10 µM
[31] = second compound 3.16 µM, first compound 0.0316 µM
[32] = second compound 3.16 µM, first compound 0.1 µM
[33] = second compound 3.16 µM, first compound 0.316 µM
[34] = second compound 3.16 µM, first compound 1 µM
[35] = second compound 3.16 µM, first compound 3.16 µM
[36] = second compound 3.16 µM, first compound 10 µM
[37] = second compound 10 µM, first compound 0.0316 µM
[38] = second compound 10 µM, first compound 0.1 µM
[39] = second compound 10 µM, first compound 0.316 µM
[40] = second compound 10 µM, first compound 1 µM
[41] = second compound 10 µM, first compound 3.16 µM
[42] = second compound 10 µM, first compound 10 µM
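Note: spheroids exposed to the agents for 7 days before readout.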

In the case of C=CC(=O)N1CCN(c2nc(=O)n(-c3c(C)ccnc3C(C)C)c3nc(-c4c(O)cccc4F)c(F)cc23)C(C)C1 (configuration not stated) + CNC(=O)c1ccc(Nc2nc(OC3CCCC3)c3c(-c4ccc5nc(C)oc5c4)c[nH]c3n2)c(OC)c1, the IC50 [1] is reported as > 10 µM, the IC50 [2] is reported as > 10 µM and the IC50 [3] is reported as > 10 µM. For the same compound, the IC50 [4] was > 10 µM, the IC50 [5] was > 10 µM and the IC50 [6] was > 10 µM. The viability, T/C [7] was 110%, the viability, T/C [8] was 105% and the viability, T/C [9] was 109%. It also gave a viability, T/C [10] of 121%, a viability, T/C [11] of 126% and a viability, T/C [12] of 121%. For the same compound, the viability, T/C [13] was 124%, the viability, T/C [14] was 109% and the viability, T/C [15] was 121%. For the same compound, the viability, T/C [16] was 112%, the viability, T/C [17] was 137% and the viability, T/C [18] was 123%. For the same compound, the viability, T/C [19] was 81%, the viability, T/C [20] was 76.5% and the viability, T/C [21] was 76.5%. The viability, T/C [22] was 89.1%, the viability, T/C [23] was 88.9% and the viability, T/C [24] was 82%. For the same compound, the viability, T/C [25] was 68.7%, the viability, T/C [26] was 63.5% and the viability, T/C [27] was 66.8%. The viability, T/C [28] was 68.3%, the viability, T/C [29] was 74.1% and the viability, T/C [30] was 68.7%. For the same compound, the viability, T/C [31] was 57.1%, the viability, T/C [32] was 59.5% and the viability, T/C [33] was 59%. For the same compound, the viability, T/C [34] was 61.7%, the viability, T/C [35] was 70.3% and the viability, T/C [36] was 59.2%. It also gave a viability, T/C [37] of 58.7%, a viability, T/C [38] of 59.9% and a viability, T/C [39] of 58%. For the same compound, the viability, T/C [40] was 64.9%, the viability, T/C [41] was 70.5% and the viability, T/C [42] was 56.8%.
With Nc1ccccc1NC(=O)c1ccc(CNC(=O)OCc2cccnc2)cc1 + CNC(=O)c1ccc(Nc2nc(OC3CCCC3)c3c(-c4ccc5nc(C)oc5c4)c[nH]c3n2)c(OC)c1 the IC50 [1] was 7.09 µM, the IC50 [2] was 6.91 µM and the IC50 [3] was 4.11 µM. It also gave an IC50 [4] of 1.7 µM, an IC50 [5] of 1.88 µM and an IC50 [6] of 1.84 µM. The viability, T/C [7] was 118%, the viability, T/C [8] was 103% and the viability, T/C [9] was 113%. For the same compound, the viability, T/C [10] was 91.8%, the viability, T/C [11] was 70.7% and the viability, T/C [12] was 41.3%. It also gave a viability, T/C [13] of 118%, a viability, T/C [14] of 110% and a viability, T/C [15] of 120%. The viability, T/C [16] was 97.9%, the viability, T/C [17] was 71% and the viability, T/C [18] was 40.2%. For the same compound, the viability, T/C [19] was 85.5%, the viability, T/C [20] was 82.9% and the viability, T/C [21] was 74.3%. For the same compound, the viability, T/C [22] was 75.5%, the viability, T/C [23] was 54% and the viability, T/C [24] was 31.3%. It also gave a viability, T/C [25] of 70.6%, a viability, T/C [26] of 70.7% and a viability, T/C [27] of 66.7%. The viability, T/C [28] was 59.9%, the viability, T/C [29] was 38.8% and the viability, T/C [30] was 12.5%. For the same compound, the viability, T/C [31] was 63.8%, the viability, T/C [32] was 66.1% and the viability, T/C [33] was 63.8%. It also gave a viability, T/C [34] of 62.2%, a viability, T/C [35] of 40.1% and a viability, T/C [36] of 8.12%. For the same compound, the viability, T/C [37] was 60.8%, the viability, T/C [38] was 63.3% and the viability, T/C [39] was 57.2%. It also gave a viability, T/C [40] of 62.6%, a viability, T/C [41] of 40.3% and a viability, T/C [42] of 7.43%.
With Nc1ccccc1NC(=O)c1ccc(CNC(=O)OCc2cccnc2)cc1 the viability, T/C (compound 0.0316 µM) was 88.5% and 105%, the viability, T/C (compound 0.1 µM) was 89.2% and 81.2% and the viability, T/C (compound 0.316 µM) was 91.8% and 98.1%. For the same compound, the viability, T/C (compound 1 µM) was 87.1% and 85%, the viability, T/C (compound 3.16 µM) was 61.8% and 65.7% and the viability, T/C (compound 10 µM) was 42.5% and 44.2%. The IC50 (curve of compound) was 6.4 µM and 7.34 µM.
CC(=O)O[C@H]1C(=O)[C@@]2(C)[C@H]([C@H](OC(=O)c3ccccc3)[C@]3(O)C[C@H](OC(=O)[C@H](O)[C@@H](NC(=O)c4ccccc4)c4ccccc4)C(C)=C1C3(C)C)[C@]1(OC(C)=O)CO[C@@H]1C[C@@H]2O + CN1CCN(c2cc(C(=O)Nc3cc4cc(-c5cnn(C)c5)ccc4cn3)ccn2)CC1 was tested, and the IC50 [1] was > 10 µM, the IC50 [2] was 0.947 µM and the IC50 [3] was 0.0507 µM. For the same compound, the IC50 [4] was < 0.0316 µM, the IC50 [5] was < 0.0316 µM and the IC50 [6] was < 0.0316 µM. It also gave a viability, T/C [7] of 94%, a viability, T/C [8] of 80.4% and a viability, T/C [9] of 64.1%. For the same compound, the viability, T/C [10] was 57.5%, the viability, T/C [11] was 54.8% and the viability, T/C [12] was 54.5%. It also gave a viability, T/C [13] of 83.2%, a viability, T/C [14] of 77.6% and a viability, T/C [15] of 58.6%. It also gave a viability, T/C [16] of 50%, a viability, T/C [17] of 48.1% and a viability, T/C [18] of 48.2%. The viability, T/C [19] was 52.1%, the viability, T/C [20] was 49.1% and the viability, T/C [21] was 39.1%. For the same compound, the viability, T/C [22] was 34.2%, the viability, T/C [23] was 36.9% and the viability, T/C [24] was 38.3%. It also gave a viability, T/C [25] of 2.95%, a viability, T/C [26] of 3.46% and a viability, T/C [27] of 2.81%. It also gave a viability, T/C [28] of 5.29%, a viability, T/C [29] of 3.96% and a viability, T/C [30] of 3.89%. For the same compound, the viability, T/C [31] was 2.65%, the viability, T/C [32] was 0.84% and the viability, T/C [33] was 1.67%. The viability, T/C [34] was 2.13%, the viability, T/C [35] was 1.35% and the viability, T/C [36] was 0.72%. It also gave a viability, T/C [37] of 1.84%, a viability, T/C [38] of 1.49% and a viability, T/C [39] of 0.61%. For the same compound, the viability, T/C [40] was 0.57%, the viability, T/C [41] was 0.83% and the viability, T/C [42] was 2.14%.
With CC(CO)NC(=O)c1cc(-c2ccc(Cl)cc2)nn(-c2cnn(C)c2)c1=O (configuration not stated) the viability, T/C (compound 0.0316 µM) was 104% and 103%, the viability, T/C (compound 0.1 µM) was 99.9% and 95.8% and the viability, T/C (compound 0.316 µM) was 94.6% and 96.1%. For the same compound, the viability, T/C (compound 1 µM) was 92.1% and 100%, the viability, T/C (compound 3.16 µM) was 103% and 92.2% and the viability, T/C (compound 10 µM) was 88.4% and 88.7%. For the same compound, the IC50 (curve of compound) was > 10 µM.
Nc1ccccc1NC(=O)c1ccc(CNC(=O)OCc2cccnc2)cc1 + CN1CCN(c2cc(C(=O)Nc3cc4cc(-c5cnn(C)c5)ccc4cn3)ccn2)CC1 gave an IC50 [1] of 6.35 µM, an IC50 [2] of 5.03 µM and an IC50 [3] of 2.33 µM. The IC50 [4] was < 0.0316 µM, the IC50 [5] was < 0.0316 µM and the IC50 [6] was < 0.0316 µM. It also gave a viability, T/C [7] of 99.7%, a viability, T/C [8] of 103% and a viability, T/C [9] of 91.4%. For the same compound, the viability, T/C [10] was 81.7%, the viability, T/C [11] was 61.8% and the viability, T/C [12] was 42.3%. It also gave a viability, T/C [13] of 110%, a viability, T/C [14] of 88.1% and a viability, T/C [15] of 83.7%. It also gave a viability, T/C [16] of 71.1%, a viability, T/C [17] of 60% and a viability, T/C [18] of 38.3%. For the same compound, the viability, T/C [19] was 70.1%, the viability, T/C [20] was 64.8% and the viability, T/C [21] was 64.3%. For the same compound, the viability, T/C [22] was 60.4%, the viability, T/C [23] was 46.4% and the viability, T/C [24] was 20.9%. The viability, T/C [25] was 8.94%, the viability, T/C [26] was 5.54% and the viability, T/C [27] was 6.13%. For the same compound, the viability, T/C [28] was 3.31%, the viability, T/C [29] was 1.46% and the viability, T/C [30] was 1.42%. The viability, T/C [31] was 0.74%, the viability, T/C [32] was 0.78% and the viability, T/C [33] was 0.83%. The viability, T/C [34] was 2.18%, the viability, T/C [35] was 1.99% and the viability, T/C [36] was 1.71%. It also gave a viability, T/C [37] of 0.41%, a viability, T/C [38] of 1.24% and a viability, T/C [39] of 1.06%. It also gave a viability, T/C [40] of 0.6%, a viability, T/C [41] of 0.7% and a viability, T/C [42] of 1.88%.
